For one molecule, solubility, Solubility in words and Solubility results are on record in US9084754B2, “Highly permeating terbinafine formulation” (NUVO RESEARCH INC., priority 2009, dated 2015).

This data set is described as follows: Solubility of terbinafine hydrochloride. The format is physicochemical. As to conditions: for solubility at 24 h: thermodynamic from solid. Here is the method: Buffer Preparation: Buffers were prepared at 50 mM concentration using ammonium acetate (pHs 4.0 and 10.0) or ammonium phosphate (pHs 6.0, 7.0, and 8.0). Solubility Sample Preparation: 100 to 800 mg terbinafine HCL was transferred to separate 4-mL vials. To each vial, 2 mL of the solvent to be investigated was added. Samples were capped and then rotated for 24 hours at room temperature. The samples were allowed to settle overnight at room temperature. Approximately 0.4 mL of the supernatant was removed and transferred to a 0.45 μm Nylon microcentrifuge filter and clarified. Samples were diluted with 50% methanol to within the calibration range. Sample Analysis: Samples were analyzed by HPLC with five-minute runs.

Structures can show the parent of a compound that is named as a salt.

Broadly, the solubility is the dissolved amount per volume that the medium holds. Usually Solubility stands for the concentration that dissolves in the medium under given conditions. Higher therefore signals much dissolved substance. In the case of `CN(C/C=C/C#CC(C)(C)C)Cc1cccc2ccccc12` [Terbinafine, terbinafine hydrochloride], the solubility at 24 h is 4800 µg/mL (50 mM ammonium acetate buffer pH 4.0, aqueous buffer, solvent pH 4.0 buffer); 1500 µg/mL (50 mM ammonium acetate buffer pH 10.0, aqueous buffer, solvent pH 10.0 buffer); 5000 µg/mL (50 mM ammonium phosphate buffer pH 6.0, aqueous buffer, solvent pH 6.0 buffer); 20 µg/mL (50 mM ammonium phosphate buffer pH 7.0, aqueous buffer, solvent pH 7.0 buffer); 2 µg/mL (50 mM ammonium phosphate buffer pH 8.0, aqueous buffer, solvent pH 8.0 buffer); 700 µg/mL (aqueous buffer, solvent PBS pH 5.5). Further, the solubility at 24 h was 7500 µg/mL (aqueous with cosolvent or surfactant or cyclodextrin, solvent 10% Ethanol); 11000 µg/mL (aqueous with cosolvent or surfactant or cyclodextrin, solvent 20% Ethanol); 53000 µg/mL (aqueous with cosolvent or surfactant or cyclodextrin, solvent 40% Ethanol); 119000 µg/mL (aqueous with cosolvent or surfactant or cyclodextrin, solvent 50% Ethanol); 30 µg/mL (oil or lipid, solvent Isopropyl myristate); 114000 µg/mL (organic solvent or mixture, solvent DMSO). The solubility at 24 h runs as follows: (organic solvent or mixture, solvent Ethanol) 172000 µg/mL; (organic solvent or mixture, solvent Isopropanol) 26300 µg/mL; (solvent Water, room temperature) 5900 µg/mL. The Solubility in words entry is, setting by setting: (aqueous solvents with pHs of 4 and 6) “moderate solubility”; (non-polar solvents such as ethyl acetate and isopropyl myristate) “lower solubility”; (pHs 7, 8, and 10) “substantially lower solubility”; (polar organic solvents such as ethanol and DMSO) “high solubility”. Also, the Solubility turned out to be 6700 µg/mL (solvent 5% Ethanol) and 700 µg/mL (solvent Ethyl acetate).
